Data on 4 molecules can be found in ChEMBL document CHEMBL1139879, “Indolizidine alkaloids with delta-opioid receptor binding affinity from the leaves of Elaeocarpus fuscoides” (J Nat Prod, 2007).

This assay has as its target Delta-type opioid receptor (Homo sapiens, UniProt P41143). Put plainly: Displacement of [125I]deltorphin 2 from human recombinant delta opioid receptor expressed in HEK cell membranes. Details: species or system HEK293. For orientation: Loss of bound radioactivity is the signal in a displacement assay; it reports binding, not function.

Sequence of Delta-type opioid receptor (P41143 whole entry): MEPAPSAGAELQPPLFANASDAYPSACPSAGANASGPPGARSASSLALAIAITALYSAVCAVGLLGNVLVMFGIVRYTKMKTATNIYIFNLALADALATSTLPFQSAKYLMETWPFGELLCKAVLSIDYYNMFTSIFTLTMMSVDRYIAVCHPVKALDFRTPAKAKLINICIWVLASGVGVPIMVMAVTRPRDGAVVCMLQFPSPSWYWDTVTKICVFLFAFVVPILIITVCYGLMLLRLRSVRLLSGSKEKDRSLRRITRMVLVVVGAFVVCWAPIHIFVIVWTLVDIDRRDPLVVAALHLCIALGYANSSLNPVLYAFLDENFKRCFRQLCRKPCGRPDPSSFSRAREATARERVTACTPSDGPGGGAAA

The IC50 is the concentration at which inhibition is half-maximal. For the molecule `Cc1cccc2c1C(=O)[C@H]1[C@H](CCN3CCC[C@H]13)O2` [ISOELAEOCARPINE], the 50% inhibitory concentration (IC50) came out at 13.6 µM.
For `Cc1cccc(O)c1C(=O)C1=CCCN2CCC[C@H]12` [ELAEOCARPENINE], the IC50 came to 2.74 µM.
`Cc1cccc2c1C(=O)C1[C@H]3CCCN3CC[C@H]1O2` (some centres undefined) [ELAEOCARPINE]: the IC50 was determined as 86.4 µM.
As for `Cc1cccc(O)c1C(=O)[C@@H]1[C@H]2CCCN2CC[C@@H]1O` [ISOELAEOCARPICINE], the half-inhibitory concentration (IC50) was 35.1 µM.
